Measurements as given in the supplement of paper PMC10307832.

Columns and labels:
Test in all cases: relative viability (nuclei count vs DMSO), 5 days (fraction); higher = more cells survive
Everolimus + Linsitinib = compound: CO[C@H]1C[C@@H]2CC[C@@H](C)[C@@](O)(O2)C(=O)C(=O)N2CCCC[C@H]2C(=O)O[C@H]([C@H](C)C[C@@H]2CC[C@@H](OCCO)[C@H](OC)C2)CC(=O)[C@H](C)/C=C(\C)[C@@H](O)[C@@H](OC)C(=O)[C@H](C)C[C@H](C)/C=C/C=C/C=C/1C [Everolimus] + C[C@]1(O)C[C@@H](c2nc(-c3ccc4ccc(-c5ccccc5)nc4c3)c3c(N)nccn32)C1 [Linsitinib] (partner 1 µM)
How it was run: (§1)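 A single step with final 0.05% Triton X-100, 1% formaldehyde and 1 ug/ml Hoechst fixed the cells and stained nuclei 5 days after treatment. Lung cancer cell lines in 1536-well plates had been treated by pin tool the day after seeding with one drug alone or a fixed anchor-drug dose plus five library-drug doses (not always all listed) in √10 steps, and nuclei were counted on 4× images. Relative viability is the ratio of nuclei in treated wells to nuclei in vehicle wells, taken as the median of duplicate plates.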

Everolimus + Alpelisib = compound: CO[C@H]1C[C@@H]2CC[C@@H](C)[C@@](O)(O2)C(=O)C(=O)N2CCCC[C@H]2C(=O)O[C@H]([C@H](C)C[C@@H]2CC[C@@H](OCCO)[C@H](OC)C2)CC(=O)[C@H](C)/C=C(\C)[C@@H](O)[C@@H](OC)C(=O)[C@H](C)C[C@H](C)/C=C/C=C/C=C/1C [Everolimus] + Cc1nc(NC(=O)N2CCC[C@H]2C(N)=O)sc1-c1ccnc(C(C)(C)C(F)(F)F)c1 [Alpelisib] (partner 2 µM)
How it was run: as §1

Everolimus + Pictilisib = compound: CO[C@H]1C[C@@H]2CC[C@@H](C)[C@@](O)(O2)C(=O)C(=O)N2CCCC[C@H]2C(=O)O[C@H]([C@H](C)C[C@@H]2CC[C@@H](OCCO)[C@H](OC)C2)CC(=O)[C@H](C)/C=C(\C)[C@@H](O)[C@@H](OC)C(=O)[C@H](C)C[C@H](C)/C=C/C=C/C=C/1C [Everolimus] + CS(=O)(=O)N1CCN(Cc2cc3nc(-c4cccc5[nH]ncc45)nc(N4CCOCC4)c3s2)CC1 [Pictilisib] (partner 1 µM)
How it was run: as §1

Everolimus + Decitabine = compound: CO[C@H]1C[C@@H]2CC[C@@H](C)[C@@](O)(O2)C(=O)C(=O)N2CCCC[C@H]2C(=O)O[C@H]([C@H](C)C[C@@H]2CC[C@@H](OCCO)[C@H](OC)C2)CC(=O)[C@H](C)/C=C(\C)[C@@H](O)[C@@H](OC)C(=O)[C@H](C)C[C@H](C)/C=C/C=C/C=C/1C [Everolimus] + Nc1ncn([C@H]2C[C@H](O)[C@@H](CO)O2)c(=O)n1 [Decitabine] (partner 2 µM)
How it was run: as §1

Row | Cell Line | relative viability (Everolimus + Linsitinib; first compound 0.01 µM) | relative viability (Everolimus + Linsitinib; first compound 0.03162 µM) | relative viability (Everolimus + Linsitinib; first compound 0.1 µM) | relative viability (Everolimus + Linsitinib; first compound 0.3162 µM) | relative viability (Everolimus + Linsitinib; first compound 1 µM) | relative viability (Everolimus + Alpelisib; first compound 0.01 µM) | relative viability (Everolimus + Alpelisib; first compound 0.03162 µM) | relative viability (Everolimus + Alpelisib; first compound 0.1 µM) | relative viability (Everolimus + Alpelisib; first compound 0.3162 µM) | relative viability (Everolimus + Alpelisib; first compound 1 µM) | relative viability (Everolimus + Pictilisib; first compound 0.01 µM) | relative viability (Everolimus + Pictilisib; first compound 0.03162 µM) | relative viability (Everolimus + Pictilisib; first compound 0.1 µM) | relative viability (Everolimus + Pictilisib; first compound 0.3162 µM) | relative viability (Everolimus + Pictilisib; first compound 1 µM) | relative viability (Everolimus + Decitabine; first compound 0.01 µM) | relative viability (Everolimus + Decitabine; first compound 0.03162 µM) | relative viability (Everolimus + Decitabine; first compound 0.1 µM) | relative viability (Everolimus + Decitabine; first compound 0.3162 µM) | relative viability (Everolimus + Decitabine; first compound 1 µM)
1 | H3255 | 0.804 | 0.695 | 0.559 | 0.602 | 0.504 | 0.526 | 0.412 | 0.48 | 0.441 | 0.334 | 0.35 | 0.332 | 0.302 | 0.294 | 0.281 | 0.409 | 0.433 | 0.322 | 0.371 | 0.315
2 | HCC-44 | 0.467 | 0.545 | 0.313 | 0.349 | 0.411 | 0.616 | 0.597 | 0.44 | 0.511 | 0.44 | 0.429 | 0.427 | 0.309 | 0.55 | 0.323 | 0.933 | 0.975 | 0.937 | 0.954 | 0.896
3 | NCI-H1734 | 0.416 | 0.568 | 0.518 | 0.467 | 0.575 | 0.449 | 0.398 | 0.466 | 0.399 | 0.463 | 0.285 | 0.341 | 0.259 | 0.316 | 0.336 | 0.422 | 0.397 | 0.351 | 0.371 | 0.367
4 | ABC-1 | 0.599 | 0.351 | 0.55 | 0.446 | 0.535 | 0.682 | 0.617 | 0.636 | 0.678 | 0.539 | 0.389 | 0.371 | 0.413 | 0.542 | 0.557 | 0.637 |  | 0.603 |  | 0.883
5 | COR-L23 | 0.552 | 0.501 | 0.603 | 0.708 | 0.652 | 0.492 | 0.476 | 0.482 | 0.505 | 0.567 | 0.354 | 0.409 | 0.378 | 0.366 | 0.483 | 0.312 | 0.308 | 0.325 | 0.369 | 0.323
6 | NCI-H661 | 0.473 | 0.575 | 0.361 | 0.319 | 0.306 | 0.438 | 0.345 | 0.35 | 0.383 | 0.309 | 0.301 | 0.253 | 0.235 | 0.305 | 0.296 | 0.429 | 0.429 | 0.428 | 0.435 | 0.397
7 | NCI-H1993 | 0.689 | 0.63 | 0.666 | 0.694 | 0.691 | 0.674 | 0.654 | 0.602 | 0.627 | 0.672 | 0.793 | 0.739 | 0.715 | 0.786 | 0.86 | 0.468 | 0.542 | 0.433 | 0.46 | 0.447
8 | NCI-H1437 | 0.589 | 0.598 | 0.493 | 0.36 | 0.279 | 0.566 | 0.438 | 0.549 | 0.507 | 0.294 | 0.159 | 0.149 | 0.135 | 0.165 | 0.18 | 0.597 | 0.483 | 0.59 | 0.461 | 0.466
9 | UMC-11 | 0.443 | 0.391 | 0.419 | 0.388 | 0.393 | 0.348 | 0.304 | 0.301 | 0.32 | 0.311 | 0.292 | 0.273 | 0.28 | 0.299 | 0.324 | 0.329 | 0.359 | 0.352 | 0.367 | 0.392
10 | 201T | 0.805 | 0.876 | 0.78 | 0.78 | 0.823 | 0.919 | 0.893 | 0.859 | 0.847 | 0.893 | 0.59 | 0.604 | 0.528 | 0.568 | 0.645 | 0.758 | 0.757 | 0.635 | 0.705 | 0.716
11 | NCI-H358 | 0.421 | 0.533 | 0.544 | 0.388 | 0.347 | 0.504 | 0.362 | 0.438 | 0.445 | 0.402 | 0.257 | 0.241 | 0.213 | 0.257 | 0.213 | 0.204 | 0.195 | 0.218 | 0.19 | 0.205
12 | LOU-NH91 | 0.794 | 0.644 | 0.718 | 0.585 | 0.66 | 0.64 | 0.551 | 0.543 | 0.564 | 0.52 | 0.516 | 0.484 | 0.462 | 0.485 | 0.465 | 0.718 | 0.76 | 0.702 | 0.699 | 0.686
13 | HOP-62 | 0.669 | 0.603 | 0.477 | 0.607 | 0.449 | 0.683 | 0.551 | 0.517 | 0.518 | 0.429 | 0.326 | 0.274 | 0.17 | 0.267 | 0.352 | 0.223 | 0.278 | 0.195 | 0.251 | 0.321
14 | NCI-H1915 | 0.994 | 0.973 | 0.935 | 0.914 | 0.827 | 0.806 | 0.833 | 0.784 | 0.732 | 0.723 | 0.622 | 0.33 | 0.493 | 0.625 | 0.555 | 0.25 | 0.234 | 0.238 | 0.273 | 0.263
